The structures appear in SMILES notation. “And” between values parts separate entries of the source, which are not always exact repeats. Equal entries are not always repeated. Inconclusive results and toxic doses are left out.

For 16 molecules, T/C results are on record in PubChem BioAssay AID248 (DTP/NCI, 2004).

The test deals with L1210 leukemia ip in BDF1 mice, survival T/C. Description: NCI In Vivo Anticancer Drug Screen. Data for tumor model L1210 Leukemia (intraperitoneal) in B6D2F1 (BDF1) mice. To be noted: endpoint: mean survival time, higher = longer survival. The essentials:
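Ratio derived from survival: compound-dosed mice over vehicle-dosed mice, all bearing a transplantable tumor.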

Setting [1] is: dose: 100.0 mg/kg/injection, schedule: Q01DX009 (ip), vehicle: saline sonified.
[2] abbreviates: dose: 100.0 mg/kg/injection, schedule: Q04DX003 (ip), vehicle: Klucel (hydroxypropylcellulose) (HPC).
The mark [3] stands for this setting: dose: 200.0 mg/kg/injection, schedule: Q04DX003 (ip), vehicle: Klucel (hydroxypropylcellulose) (HPC).
Setting [4] is: dose: 400.0 mg/kg/injection, schedule: Q01DX009 (ip), vehicle: saline sonified.
The mark [5] stands for this setting: dose: 400.0 mg/kg/injection, schedule: Q04DX003 (ip), vehicle: Klucel (hydroxypropylcellulose) (HPC).
Setting [6] is: dose: 100.0 mg/kg/injection, schedule: Q01DX009 (ip), vehicle: saline with Tween-80.
The mark [7] stands for this setting: dose: 200.0 mg/kg/injection, schedule: Q01DX009 (ip), vehicle: saline with Tween-80.
Setting [8] is: dose: 400.0 mg/kg/injection, schedule: Q01DX009 (ip), vehicle: saline with Tween-80.
[9] abbreviates: dose: 100.0 mg/kg/injection, schedule: Q01DX001 (sc), vehicle: steriod suspending solution.
[10] abbreviates: dose: 200.0 mg/kg/injection, schedule: Q01DX001 (sc), vehicle: steriod suspending solution.
Where [11] appears, read: dose: 400.0 mg/kg/injection, schedule: Q01DX001 (sc), vehicle: steriod suspending solution.
Setting [12] is: dose: 100.0 mg/kg/injection, schedule: Q01DX009 (ip), vehicle: saline.
[13] abbreviates: dose: 100.0 mg/kg/injection, schedule: Q01DX001 (ip), vehicle: saline.
Setting [14] is: dose: 200.0 mg/kg/injection, schedule: Q01DX001 (ip), vehicle: saline.

For the molecule `O=S(=O)(Nc1ccccc1)c1ccc(C2CC3(Cl)C(Cl)=C(Cl)C2(Cl)C3(Cl)Cl)cc1` (centres undefined), the T/C (dose: 29.0 mg/kg/injection, schedule: Q01DX015 (ip), vehicle: carboxymethylcellulose (CMC)) was 97 % of control; the T/C (dose: 44.0 mg/kg/injection, schedule: Q01DX015 (ip), vehicle: carboxymethylcellulose (CMC)) was 104 % of control; the T/C (dose: 66.0 mg/kg/injection, schedule: Q01DX015 (ip), vehicle: carboxymethylcellulose (CMC)) is 95 % of control; the T/C (dose: 88.8 mg/kg/injection, schedule: Q01DX001 (ip), vehicle: carboxymethylcellulose (CMC)) is 96 % of control and 100 % of control; the T/C (dose: 100.0 mg/kg/injection, schedule: Q01DX001 (ip), vehicle: carboxymethylcellulose (CMC)) was 110 % of control; the T/C under setting [1] was 86 % of control. Moreover, the T/C (dose: 100.0 mg/kg/injection, schedule: Q01DX015 (ip), vehicle: carboxymethylcellulose (CMC)) is 92 % of control; the T/C under setting [2] is 100 % of control; the T/C (dose: 133.0 mg/kg/injection, schedule: Q01DX001 (ip), vehicle: carboxymethylcellulose (CMC)) was 107 % of control; the T/C (dose: 200.0 mg/kg/injection, schedule: Q01DX001 (ip), vehicle: carboxymethylcellulose (CMC)) was 96 % of control and 100 % of control; the T/C (dose: 200.0 mg/kg/injection, schedule: Q01DX015 (ip), vehicle: carboxymethylcellulose (CMC)) was 93 % of control; the T/C under setting [3] is 97 % of control. The T/C is 100 % of control and 109 % of control (dose: 300.0 mg/kg/injection, schedule: Q01DX001 (ip), vehicle: carboxymethylcellulose (CMC)); 105 % of control (dose: 400.0 mg/kg/injection, schedule: Q01DX001 (ip), vehicle: carboxymethylcellulose (CMC)); 98 % of control under setting [4]; 89 % of control (dose: 400.0 mg/kg/injection, schedule: Q01DX015 (ip), vehicle: carboxymethylcellulose (CMC)); 92 % of control under setting [5].
As to `ClC1=C(Cl)C2(Cl)CC(Cl)C1C2(Cl)Cl` (centres undefined), the T/C is, setting by setting: (dose: 10.0 mg/kg/injection, schedule: Q01DX001 (ip), vehicle: acetone) 105 % of control; (dose: 20.0 mg/kg/injection, schedule: Q01DX001 (ip), vehicle: acetone) 105 % of control.
Regarding `CCOCCNCC1OC(OC)C2OC(C)(C)OC12` (centres undefined), the T/C (dose: 100.0 mg/kg/injection, schedule: Q01DX005 (ip), vehicle: saline) is 103 % of control and the T/C (dose: 200.0 mg/kg/injection, schedule: Q01DX005 (ip), vehicle: saline) is 103 % of control.
With `CC(=O)N(C)c1ccc(NC(=O)Cc2ccccc2)cc1`, the T/C was 96 % of control under setting [6], 102 % of control under setting [7] and 95 % of control under setting [8].
Take `CC12CCC(=O)C=C1CCC1C2CCC2(C)C(C(=O)COC(=O)Cc3ccc(N(CCCl)CCCl)cc3)CCC12` (centres undefined): the T/C under setting [9] is 99 % of control; the T/C under setting [10] was 101 % of control; the T/C under setting [11] was 100 % of control; the T/C (dose: 400.0 mg/kg/injection, schedule: Q01DX009 (ip), vehicle: Klucel (hydroxypropylcellulose) (HPC)) is 90 % of control.
In the case of `c1ccc([Si](O[O][Ge]([c]2ccccc2)([c]2ccccc2)[c]2ccccc2)(c2ccccc2)c2ccccc2)cc1`, the T/C was 93 % of control under setting [2], 86 % of control under setting [3] and 89 % of control under setting [5].
Take `CC(C)C[As](C)(=O)O`: the T/C (dose: 66.0 mg/kg/injection, schedule: Q01DX009 (ip), vehicle: saline) was 107 % of control; the T/C under setting [12] is 115 % of control; the T/C (dose: 150.0 mg/kg/injection, schedule: Q01DX009 (ip), vehicle: saline) is 94 % of control.
For `N#Cc1nc2c3ccccc3c3ccccc3c2nc1C#N`, the T/C is 90 % of control (dose: 75.0 mg/kg/injection, schedule: Q01DX009 (ip), vehicle: other) and 104 % of control (dose: 300.0 mg/kg/injection, schedule: Q01DX009 (ip), vehicle: other).
Consider `CCOC(=O)C(NC(=O)OCc1ccccc1)(OCc1ccccc1)C(C)C` (centres undefined), for which the T/C is, setting by setting: under setting [6], 105 % of control; under setting [7], 98 % of control; under setting [8], 100 % of control.
Consider `c1ccc(-c2c(-c3ccccc3)c(-c3ccccc3)c(-c3ccccc3)c(-c3ccccc3)c2-c2ccccc2)cc1`, for which the T/C (dose: 25.0 mg/kg/injection, schedule: Q01DX009 (ip), vehicle: water) is 104 % of control; the T/C (dose: 50.0 mg/kg/injection, schedule: Q01DX009 (ip), vehicle: water) was 102 % of control; the T/C (dose: 100.0 mg/kg/injection, schedule: Q01DX009 (ip), vehicle: water) is 96 % of control; the T/C (dose: 200.0 mg/kg/injection, schedule: Q01DX009 (ip), vehicle: water) was 100 % of control; the T/C (dose: 400.0 mg/kg/injection, schedule: Q01DX009 (ip), vehicle: water) was 97 % of control.
In the case of `N#CCc1ccccc1S(=O)(=O)O`, the T/C is 105 % of control under setting [12]; 98 % of control (dose: 100.0 mg/kg/injection, schedule: Q04DX003 (ip), vehicle: saline); 100 % of control (dose: 200.0 mg/kg/injection, schedule: Q01DX009 (ip), vehicle: saline); 102 % of control (dose: 200.0 mg/kg/injection, schedule: Q04DX003 (ip), vehicle: saline); 103 % of control (dose: 400.0 mg/kg/injection, schedule: Q01DX009 (ip), vehicle: saline); 101 % of control (dose: 400.0 mg/kg/injection, schedule: Q04DX003 (ip), vehicle: saline).
As to `C[C@]12CCC(=O)C=C1CC[C@@H]1[C@@H]2C(=O)C[C@@]2(C)[C@H]1CC[C@]2(O)C(=O)COP(=O)(Nc1ccccc1)Nc1ccccc1`, the T/C runs as follows: (dose: 50.0 mg/kg/injection, schedule: Q01DX001 (sc), vehicle: steriod suspending solution) 102 % of control; under setting [9], 98 % of control; under setting [10], 102 % of control; under setting [11], 98 % of control.
As for `Clc1c2c(nc3ccccc13)CCCC2`, the T/C runs as follows: under setting [13], 95 % of control; under setting [14], 95 % of control.
Turning to `O=C(Nc1nn[nH]n1)C(F)(F)F`, the T/C is, setting by setting: under setting [13], 108 % of control; under setting [14], 103 % of control; (dose: 400.0 mg/kg/injection, schedule: Q01DX001 (ip), vehicle: saline) 105 % of control.
In the case of `COc1cccc2c1C(=O)c1c(O)c3c(c(O)c1C2=O)C[C@@](O)(C(=O)COC(C)=O)C[C@@H]3OC1CC(N)C(O)C(C)O1` (some centres undefined), the T/C was 120 % of control (dose: 0.45 mg/kg/injection, schedule: Q04DX003 (ip), vehicle: saline); 167 % of control (dose: 0.7 mg/kg/injection, schedule: Q04DX003 (ip), vehicle: saline); 111 % of control (dose: 1.6 mg/kg/injection, schedule: Q04DX003 (ip), vehicle: saline); 104 % of control (dose: 2.4 mg/kg/injection, schedule: Q04DX003 (ip), vehicle: saline).
Take `CCCCCCCC/C=C\CCCCCCCC(=O)OCCCCCCCC`: the T/C by setting is: (dose: 100.0 mg/kg/injection, schedule: Q01DX001 (ip), vehicle: Klucel (hydroxypropylcellulose) (HPC)) 97 % of control; under setting [1], 102 % of control; (dose: 200.0 mg/kg/injection, schedule: Q01DX001 (ip), vehicle: Klucel (hydroxypropylcellulose) (HPC)) 98 % of control; (dose: 200.0 mg/kg/injection, schedule: Q01DX009 (ip), vehicle: saline sonified) 98 % of control; (dose: 400.0 mg/kg/injection, schedule: Q01DX001 (ip), vehicle: Klucel (hydroxypropylcellulose) (HPC)) 92 % of control; under setting [4], 105 % of control.
